The source of these data is US12630500B2, “Hexasubstituted radialene compounds and applications thereof” (THE UNIVERSITY OF NORTH CAROLINA AT CHARLOTTE, priority 2019, dated 2026).

For data set [1] the following is noted: reported catholytes for neutral aqueous RFBs; cited from earlier work.
A short description of data set [2]: Conductivity of aqueous solutions. It is filed as physicochemical. Conditions: for Conductivity: first value of the pair; for Conductivity (value in parentheses): not defined in the patent.
The nature of data set [3]: Stability in air and thermal stability. The class given is physicochemical. The text has this:
Hexacyano[3] radialene (Na2C6(CN)6), compound 1 in FIG. 3, was synthesized at low temperatures, on a large scale, and in high yield (for example 45 g, 91%). This convenient synthesis uses inexpensive precursors (tetrachlorcyclopropene (TCCP) and malononitrile), reagents (sodium hydride), and solvent (glyme). […] Furthermore, this compound is stable in air, and can be sequentially oxidized in two single-electron transfers. The product of the first oxidation, radical anion the compound ·- is particularly persistent. […] Remarkably, the radical anion is thermally stable to above 180° C. The inherent stability of the compound and persistence of the radical anion ·- signifies that the redox couple is favorable for use in a RFB, a device in which long lifespan is required. Finally, aqueous solutions of the dianion are colorless, while the radical anion produces a deep blue color when dissolved. This is advantageous for visually following the charge-discharge characteristics of proposed RFBs.

The format of data set [4] is physicochemical. The source says:
(§1) Hexacyano[3] radialene was initially used as a model system to probe the efficacy of hexasubstituted radialenes as redox couples in pH 7 aqueous solutions. A prerequisite for a practical aqueous catholyte is a high oxidation potential that occurs within the electrochemical window of water. The electrochemistry of [C6(CN)6]^2− as a tetrabutylammonium (TBA) salt in organic solvents only. […] Using cyclic voltammetry (CV), it was first established that the one electron oxidation of the dianion to the radical anion occurs at a potential favorable for use as a catholyte for RFBs, 480 mV.
(§2) This value was almost identical to the diffusion coefficients of hydrophilic ferrocene derivatives in neutral pH solutions of NaCl. […] Such chemical stability is essential for durable RFB electrolytes.
Diester compound 3 was selected for further analysis due to its favorable solubility in both redox states and its adequate oxidation potential in water. Electrochemical studies of compound 3 were performed to gauge its stability and galvanostatic cycling performance in aqueous solution. […] This assuages concerns of the possibility of ester hydrolysis. Next, a symmetrical H-cell with a cation-exchange membrane separator was used for aqueous galvanostatic charge-discharge experiments (FIG. 4B). The compound 3 undergoes steady cycling over a period of 12 days (50 cycles). […] The higher relative capacity retention was ascribed to the asymmetry and non-planarity of the diester congener, which helps limit dimerization interactions.

Data set [5] is described as follows: Aqueous solubility by UV/Vis spectroscopy. The class given is physicochemical. Conditions: for Solubility / Radical Anion Solubility: aqueous; for Solubility: dianionic state (disodium salt); for Radical Anion Solubility: radical anionic state. The procedure:
One nitrile group was systematically substituted at a time in an effort to preserve the favorable oxidation potential of the redox couple. To this end, a series of asymmetric, ester-substituted, [3] radialene species (FIG. 3, Compounds 1-4) were prepared via the zwitterionic synthetic method. The aqueous solubilities of these compounds in both the dianionic and radical anionic states were determined using UV/Vis spectroscopy (Table 1).

A short description of data set [6]: Cyclic voltammetry in water (GC working electrode, Ag/AgCl reference). The class given is physicochemical. As to conditions: for E^ox1/2 / ipc/ipa: in water.
From the text: FIG. 2A provides cyclic voltammograms of a hexasubstituted radialene dianion ([…]) using a glassy carbon (GC) working electrode, platinum auxiliary electrode, and Ag/AgCl reference electrode measured at various scan rates (10-700 mV/s) in water.
as §1, §2

Experiment in data set [7]: as above
The class given is physicochemical. As to conditions: Randles-Sevcik equation, scan rates 0-700 mV/s.

Some results are limits rather than exact numbers.

A word on the Solubility: it is how much of the substance goes into solution per volume.

In the case of `CC1(C)CC(O)CC(C)(C)N1[O]` [4-hydroxy-TEMPO], the oxidation potential in data set [1] was 610 mV.

As for `N#CC(C#N)=C1C([C-](C#N)C#N)=C1[C-](C#N)C#N.[Na+].[Na+]` [Compound 1, Hexacyano[3] radialene (Na2C6(CN)6)], in data set [2], the Conductivity is listed as 13.2 mS/cm and the “Conductivity (value in parentheses)” value is given as “(0.147) mS/cm”. The stability in air result in data set [3] (dianion compound) is on record as “stable in air”. The “thermal stability of radical anion” value in data set [3] (radical anion) is “above 180 °C”. Further, the “storage of radical anion in air” value in data set [3] (radical anion, isolated via chemical oxidation) is recorded as “stored in air indefinitely”. In data set [4] (pH 7), the “stability in aqueous solutions” value is listed as “stable”. Also, in data set [4] (solutions of dianion and radical anion left five days), the “change in peak current height on standing” value was “no significant changes in peak current height”. Moreover, in data set [5], the Solubility was under 100 mM and the “Radical Anion Solubility” value was under 25 mM. In data set [5] (dianion), this compound had a solubility in water of 25 mM. In addition, the “potential of one electron oxidation of dianion to radical anion” value in data set [6] (cyclic voltammetry, aqueous pH 7) is reported as 480 mV. In addition, in data set [6], the “E^ox1/2” value worked out at 0.48 V and the ipc/ipa was 1.03. Also, in data set [7], the “diffusion coefficient for the electron transfer process” value is listed as 3.71×10^−6 cm^2/s.

For `COC(=O)C(C#N)=C1C([C-](C#N)C#N)=C1[C-](C#N)C#N.[Na+].[Na+]` [Compound 2], in data set [2], the Conductivity was 15.7 mS/cm and the “Conductivity (value in parentheses)” value is reported as “(2.36) mS/cm”. Also, in data set [5], the Solubility came out at 190 mM and the “Radical Anion Solubility” value is 80 mM. In data set [6], the “E^ox1/2” value amounted to 0.4 V and the ipc/ipa amounted to 0.97.

`COC(=O)[C-](C#N)C1=C([C-](C#N)C(=O)OC)C1=C(C#N)C#N.[Na+].[Na+]` (stereo not drawn) [Compound 3, diester-tetracyano [3] radialene dianion]: the “conductivity of aqueous solutions without supporting electrolyte” value in data set [2] (0.1 M, without NaCl) is given as “sufficiently conductive”. In data set [2], the Conductivity came out at 36.7 mS/cm and the “Conductivity (value in parentheses)” value is given as “(23.2) mS/cm”. In data set [4], the “stability of dianion in water” value is on record as “stable in water”. Besides, in data set [5], the Solubility was found to be 450 mM and the “Radical Anion Solubility” value was determined as 170 mM. In addition, the solubility in water in data set [5] (disodium salt) was 850 mM. Besides, in data set [6], the “E^ox1/2” value is 0.35 V and the ipc/ipa is reported as 1.06.

In the case of `COC(=O)C(C#N)=C1C([C-](C#N)C(=O)OC)=C1[C-](C#N)C(=O)OC.[Na+].[Na+]` (stereo not drawn) [Compound 4], in data set [2], the Conductivity is 39 mS/cm and the “Conductivity (value in parentheses)” value is given as “(0.23) mS/cm”. Moreover, in data set [5], the Solubility came out at 820 mM and the “Radical Anion Solubility” value is under 25 mM. For the same compound, in data set [6], the “E^ox1/2” value is 0.27 V and the ipc/ipa was 1.15.
